Patent US4801607A, “Antiviral furanoditerpenoids” (Harbor Branch Oceanographic Institution, Inc., priority 1987, dated 1989)
Values after ≈ are worked out from the molar mass of the structure shown. Read-outs that look alike come from different tables or passages of the source. Marks after values point to notes of the source that are not given here.

What was measured:
[1] = system: P388 mouse leukemia cells; assay: P388 mouse leukemia cell assay; type: cell-based; conditions: 48 hours
Experimental: P388 mouse leukemia cells are grown in Dulbecco's minimum essential medium with Earle's salts (MEM) with 10% horse serum, 4 mM glutamine, and 20 ug/ml gentamicin (Biologos, Inc.). Cells are incubated in 10% CO2 and subcultured 2 times per week. 1. Add compound to each well of a 24-well plate or tube and allow solvent to evaporate to dryness. 2. Add 2 ml (1.2×10^5) cells to each well or tube and mix. 3. Incubate in 10% CO2 at 37° for 48 hours. 4. Read plates with an inverted microscope, scoring activity from 1+ to 4+ as follows: ND (not detectable),>90%; 1+, 75-90%; 2+, 50-74%; 3+, 25-49%; 4+, <25% of control growth. Cell counts are performed on each tube and results are reported as percent of control. Positive control--Vinblastine or Vincristine in aqueous solution.

[2] = system: A-549 human lung carcinoma cells; assay: Human tumor cell line assay, A-549 lung; type: cell-based; conditions: 120 hours, read-out: Antitumor activity, A-549
Experimental: (§1) HCT-8 human colon tumor cells are grown in RPM1 1640 medium (GIBCO). A-549 human lung carcinoma cells are cultured in Dulbecco medium (Biologos, Inc.). MCF-7, MDA-MB 231 and T47D human breast carcinoma cells are grown in Eagles MEM medium. All media are supplemented with 10% fetal bovine serum and contain 50 μg/ml gentamicin. All human tumor cell lines are incubated in 5% CO2 at 37° and subcultured once a week. The seeding levels are 350,000 MCF-7 cells, 60,000 HCT-8 cells and 300,000 A-549 cells per T25 flask.
(§2) 2. Incubate in 5% CO2 for 48 hours.
(§3) 3. Add compound (50 μg)to each well and incubate for an additional 120 hours.
(§4) 4. Discard medium and stain with methylene blue (HCT-8) or crystal violet (A549 and MCF-7) for 30 minutes.
(§5) 5. Compare cell density of drug-treated well with that of the control (no drug added) as follows: ND (not detectable), >90%; 1+, 75-90%; 2+, 50-74%; 3+, 25-49%, 4+, <25% of control growth.

[3] = system: VSV; type: cell-based, vesicular stomatitis virus
[4] = system: HCT-8 human colon tumor cells; assay: Human tumor cell line assay, HCT-8 colon; type: cell-based; conditions: 120 hours, read-out: Antitumor activity, HCT-8
Experimental: as §1, §2, §3, §4, §5

[5] = system: human tumor cell lines; assay: Human tumor cell line assay (cell lines together); type: cell-based; conditions: 120 h, in concentrations of at least 10 μg/ml, read-out: concentrations with good activity against human tumor cell lines
Experimental: as §1, §2, §3, §4, §5

[6] = system: CV-1 cells; assay: Cytotoxicity in the antiviral disc assay
[7] = system: HSV-1; assay: Antiviral disc assay, HSV-1 in CV-1 cells; type: cell-based, herpes simplex type 1
[8] = system: MDA-MB 231 human breast carcinoma cells; assay: Human tumor cell line assay, MDAMB mammary; type: cell-based; conditions: 120 hours, read-out: Antitumor activity, MDAMB
Experimental: as §1, §2, §3, §4, §5

## C[C@]12C[C@@H](O)C(=O)[C@](C)(CO)[C@@H]1CC[C@@]1(C)c3cocc3CC[C@H]21 [Composition 1, isospongiadiol]
[1]
  IC50: 5 µg/mL (≈ 15 µM)
[2]; A549, dose 1 μg/ml
  activity at 1 µg/mL: > 90%
[2]; A549, dose 10 μg/ml
  activity at 10 µg/mL: 25 to 49%
[2]; A549, dose 50 μg/ml
  activity at 50 µg/mL: < 25%
[3]; 20 μg/disk
  VSV Activity: +
[4]; dose 1 μg/ml
  activity at 1 µg/mL: > 90%
[4]; dose 10 μg/ml
  activity at 10 µg/mL: 25 to 49%
[4]; dose 50 μg/ml
  activity at 50 µg/mL: < 25%
[5]
  minimal effective concentration: ≥ 10 µg/mL
[6]; 2 μg/disk
  Cytotoxicity: 0*
[6]; 20 μg/disk
  Cytotoxicity: 0*
[7]; 2 μg/disk
  HSV-1 Activity: ++
[7]; 20 μg/disk
  HSV-1 Activity: +++
[8]; dose 1 μg/ml
  activity at 1 µg/mL: > 90%
[8]; dose 10 μg/ml
  activity at 10 µg/mL: 25 to 49%
[8]; dose 50 μg/ml
  activity at 50 µg/mL: < 25%

## C[C@]12CC(=O)[C@H](O)[C@](C)(CO)[C@@H]1CC[C@@]1(C)c3cocc3CC[C@H]21 [Composition 3, epispongiadiol]
[1]
  IC50: 8 µg/mL (≈ 24.1 µM)
[3]; 20 μg/disk
  VSV Activity: +
[7]; 6.25 μg/disk
  HSV-1 Activity: +
[7]; 12.5 μg/disk
  HSV-1 Activity: ++

## C[C@]12CC(=O)[C@@H](O)[C@](C)(CO)[C@@H]1CC[C@@]1(C)c3cocc3CC[C@H]21 [Composition 2, spongiadiol]
[1]
  IC50: 0.5 µg/mL (≈ 1.5 µM)
[3]; 0.5 μg/disk
  VSV Activity: ++
[3]; 1 μg/disk
  VSV Activity: +++
[7]; 0.5 μg/disk
  HSV-1 Activity: +++
